Type in all cases: cell-based
In one assay the target is T1, μ opioid receptor (Homo sapiens, UniProt P35372).
T1 construct: expressed in transfected cells
The assay can be described thus: FLIPR intracellular calcium signal test, HEK293-μ cells. The following applies: for EC50: EC50 (activation) test, read-out: Mu receptor EC50; for IC50: IC50 (inhibition) test against EC80 of positive agonist, read-out: Mu receptor IC50. Here is the method: (§1) Fluorescence imaging plate reader FLIPR was used to detect changes of intracellular calcium signals. EC50 and IC50 values of the compounds were used as indicators to evaluate the activation or inhibition of the compounds on μ, κ, and δ opioid receptors.
(§2) Cell lines: HEK293-μ, HEK293-κ and HEK293-δ, stable-transfected cell lines HEK293-μ, HEK293-κ and HEK293-δ; Cell culture media (DMEM, Invitrogen #11965118, 10% fetal bovine serum Invitrogen #10099141, Geneticin Selective Antibiotic (G418) 300 μg/mL, Invitrogen #10131027, Blasticidin-S HCL 2 ug/mL Invitrogen #A1113902)
(§3) 1. Cell Seeding (HEK293-μ, HEK293-κ and HEK293-δ Cells)
(§4) 1) Preheating medium, pancreatic enzyme, and DPBS in a 37° C. water bath. Aspirating the culture medium from the cell culture flask and washing it with 10 mL DPBS;
(§5) 2) Adding the preheated pancreatic enzyme solution to the cell culture flask, rotating the flask slightly to make the pancreatic enzymes evenly cover the cell surface of the flask, and then putting it into a 37° C., 5% CO2 incubator to digest for 1-2 minutes;
(§6) 3) Suspending the cells with 10-15 mL culture medium in each T150 cm^2 cell culture flask, centrifugating at 800 rpm for 5 minutes, and resuspending the cells with 10 mL culture medium, aspirating 1 mL cell resuspension to be counted with Vi-cell;
(§7) 4) Diluting HEK293-μ, HEK293-κ and HEK293-δ cells to 5×10^5/mL with culture medium, use multichannel pipette to add diluted cells into 384 plate (Greiner #781946) (50 μL/well, 25000 cells/well for HEK293-μ, HEK293-κ and HEK293-δ cells). Placing the cell plate in a 37° C., 5% CO2 incubator overnight.
(§8) 2. Adding Compound Samples:
(§9) 1) Diluting the compound to 20 mM with DMSO, 3 fold diluted, 8 gradients, double reduplicative wells, and adding it to the compound plate using an Echo ultrasonic liquid handler device (Echo liquid handler).
(§10) 1) Washing off the cell culture medium in 384 plate with vacuum pump, adding 20 μL Fluo-4 Direct fluorescent dye, then incubating in a 37° C., 5% CO2 incubator for 50 minutes, followed by equilibrating at room temperature for 10 minutes.
(§11) 2) EC50 test: Adding 20 uL HBSS buffer (containing 20 mM HEPES) to the compound plate, mixing well and centrifugating. Placing the cell plate and compound plate into FLIPR and reading the fluorescence value.
(§12) Calculating the EC80 value with the EC50 value of the positive agonist, preparing 4× EC80 solution, adding it to the 384 compound plate by multichannel pipette, and mixing well and centrifugating.
(§13) 4) IC50 test: In FLIPR, successively placing 4× EC80 plate, cell plate, FLIPR tip, running the program and reading the fluorescence value.
(§14) 4. Data Analyzing: Using Prism 5.0 to Analyze the Data and Calculate the EC50 and IC50 Values of the Compounds.
(In general: A change in cytosolic calcium serves as a functional read-out for many receptors and channels.)

For the next assay, the target named is T2, δ opioid receptor (Homo sapiens, UniProt P41143).
T2 construct: expressed in transfected cells
Briefly: FLIPR intracellular calcium signal test, HEK293-δ cells. As to conditions: for EC50: EC50 (activation) test, read-out: Delt receptor EC50; for IC50: IC50 (inhibition) test against EC80 of positive agonist, read-out: Delt receptor IC50. Here is the method:
as §1, §2, §3, §4, §5, §6, §7, §8, §9, §10, §11, §12, §13, §14

Another assay addresses T3, κ opioid receptor (Homo sapiens, UniProt P41145).
T3 construct: expressed in transfected cells
Briefly: FLIPR intracellular calcium signal test, HEK293-κ cells. As to conditions: for EC50: EC50 (activation) test, read-out: Kapp receptor EC50; for IC50: IC50 (inhibition) test against EC80 of positive agonist, read-out: Kapp receptor IC50. Here is the method:
as §1, §2, §3, §4, §5, §6, §7, §8, §9, §10, §11, §12, §13, §14

Each structure is given as a SMILES string.

Experimental findings from US10414718B2, “Dezocine analogue” (priority 2016, dated 2019) are described below.

In general, EC50 refers to the concentration giving half of the maximal effect. What is called IC50 is the concentration at which inhibition is half-maximal.

T3 sequence (P41145 whole entry): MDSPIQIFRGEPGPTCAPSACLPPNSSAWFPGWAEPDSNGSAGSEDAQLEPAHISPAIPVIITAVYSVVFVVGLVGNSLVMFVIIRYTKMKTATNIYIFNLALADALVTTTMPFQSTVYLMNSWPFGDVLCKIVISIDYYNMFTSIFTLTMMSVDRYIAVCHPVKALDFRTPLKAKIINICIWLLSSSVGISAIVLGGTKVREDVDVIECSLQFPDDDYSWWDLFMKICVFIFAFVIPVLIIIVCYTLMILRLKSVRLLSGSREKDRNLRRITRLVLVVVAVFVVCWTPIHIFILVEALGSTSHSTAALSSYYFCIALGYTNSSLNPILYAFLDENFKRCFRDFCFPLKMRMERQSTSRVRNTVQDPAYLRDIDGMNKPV
T2 sequence (P41143 whole entry): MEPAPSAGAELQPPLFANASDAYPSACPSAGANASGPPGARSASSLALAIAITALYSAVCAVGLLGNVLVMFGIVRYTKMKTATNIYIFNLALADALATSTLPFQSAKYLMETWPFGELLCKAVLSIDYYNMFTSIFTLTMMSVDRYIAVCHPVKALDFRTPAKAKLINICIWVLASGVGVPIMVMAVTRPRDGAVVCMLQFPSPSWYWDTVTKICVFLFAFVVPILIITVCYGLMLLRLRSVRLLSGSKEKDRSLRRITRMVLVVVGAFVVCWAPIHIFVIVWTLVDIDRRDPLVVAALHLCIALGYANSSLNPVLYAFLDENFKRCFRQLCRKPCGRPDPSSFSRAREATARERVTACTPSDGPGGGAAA
T1 sequence (P35372 whole entry): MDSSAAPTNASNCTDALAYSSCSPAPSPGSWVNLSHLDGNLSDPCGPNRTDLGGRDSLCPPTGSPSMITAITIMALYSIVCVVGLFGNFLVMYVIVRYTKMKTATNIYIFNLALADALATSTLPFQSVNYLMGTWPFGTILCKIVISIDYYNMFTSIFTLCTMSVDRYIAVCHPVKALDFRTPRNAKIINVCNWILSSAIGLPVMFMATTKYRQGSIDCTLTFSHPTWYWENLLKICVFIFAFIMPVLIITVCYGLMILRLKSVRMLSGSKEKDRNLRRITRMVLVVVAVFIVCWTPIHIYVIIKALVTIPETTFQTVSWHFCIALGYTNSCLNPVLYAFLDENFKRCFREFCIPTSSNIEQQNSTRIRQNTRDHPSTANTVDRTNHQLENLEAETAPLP

With `CC12CCCCC(Cc3c(F)cc(O)cc31)C2N` (single isomer, unassigned) [Compound 32], the concentration giving a half-maximal response (EC50) at μ opioid receptor was 0.1 to 1 µM; on δ opioid receptor, > 100 µM; at κ opioid receptor, 0.1 to 1 µM. Moreover, the 50% inhibitory concentration (IC50) on μ opioid receptor is 0.1 to 1 µM; on δ opioid receptor, 1 to 10 µM; on κ opioid receptor, 0.1 to 1 µM.
Take `CC12CCCCC(Cc3c(F)cc(O)cc31)C2N` (single isomer, unassigned) [Compound 33]: the results for the EC50 on μ opioid receptor, at δ opioid receptor and on κ opioid receptor were 0.1 to 1 µM, 1 to 10 µM and 0.1 to 1 µM, respectively. Further, the concentration for half-maximal inhibition (IC50) at μ opioid receptor was 1 to 10 µM; on δ opioid receptor, 1 to 10 µM; on κ opioid receptor it was 0.1 to 1 µM.
With `Cc1cc(O)cc2c1CC1CCCCCC2(C)C1N` (stereo not shown) [Compound 1], the EC50 on μ opioid receptor, on δ opioid receptor and at κ opioid receptor was > 100 µM each time. For the same compound, the IC50 is ≤ 0.1 µM at μ opioid receptor, 1 to 10 µM on δ opioid receptor and 0.1 to 1 µM at κ opioid receptor.
Consider `CC12CCCCCC(Cc3ccc(O)cc31)C2N` (stereo not shown) [Compound 2, reference compound], for which the EC50 on δ opioid receptor and at κ opioid receptor was > 100 µM throughout. The IC50 at δ opioid receptor is > 100 µM; at κ opioid receptor it was 1 to 10 µM.
As to `CC12CCCCCC(Cc3c(Cl)cc(O)cc31)C2N` (stereo not shown) [Compound 3], the values for the EC50 at μ opioid receptor, at δ opioid receptor and at κ opioid receptor were 0.1 to 1 µM, > 100 µM and > 100 µM, respectively. The figures for the IC50 on μ opioid receptor, on δ opioid receptor and on κ opioid receptor were 0.1 to 1 µM, 1 to 10 µM and 0.1 to 1 µM, respectively.
On to `CC12CCCCCC(Cc3ccc(O)c(F)c31)C2N` (stereo not shown) [Compound 4], for which the EC50 is 0.1 to 1 µM at μ opioid receptor, > 100 µM at δ opioid receptor and > 100 µM on κ opioid receptor. The figures for the IC50 on μ opioid receptor, on δ opioid receptor and at κ opioid receptor were 0.1 to 1 µM, > 100 µM and 1 to 10 µM, respectively.
For the compound `CC12CCCCCC(Cc3cc(O)c(O)cc31)C2N` (stereo not shown) [Compound 5], the EC50 was 1 to 10 µM at μ opioid receptor, > 100 µM on δ opioid receptor and 1 to 10 µM on κ opioid receptor. Also, the IC50 was 10 to 100 µM on μ opioid receptor, > 100 µM at δ opioid receptor and 10 to 100 µM on κ opioid receptor.
On to `CC12CCCCCC(Cc3c(F)cc(O)cc31)C2N` (stereo not shown) [Compound 6], for which the 50% effective concentration (EC50) on μ opioid receptor is ≤ 0.1 µM; on δ opioid receptor, > 100 µM; on κ opioid receptor, > 100 µM. Also, the IC50 at μ opioid receptor was 0.1 to 1 µM; at δ opioid receptor it was 1 to 10 µM; at κ opioid receptor it was 1 to 10 µM.
Take `COc1cc(O)cc2c1CC1CCCCCC2(C)C1N` (stereo not shown) [Compound 7]: the EC50 on μ opioid receptor, on δ opioid receptor and on κ opioid receptor was > 100 µM in each case. The IC50 on μ opioid receptor is 1 to 10 µM; at δ opioid receptor, > 100 µM; at κ opioid receptor, 1 to 10 µM.
`CC12CCOCCC(Cc3ccc(O)cc31)C2N` (stereo not shown) [Compound 8]: the EC50 on μ opioid receptor is 0.1 to 1 µM; on δ opioid receptor, > 100 µM; at κ opioid receptor, > 100 µM. The IC50 was 1 to 10 µM on μ opioid receptor, > 100 µM at δ opioid receptor and 1 to 10 µM at κ opioid receptor.
For the compound `CCc1cc(O)cc2c1CC1CCCCCC2(C)C1N` (stereo not shown) [Compound 9], the EC50 at μ opioid receptor, at δ opioid receptor and on κ opioid receptor was > 100 µM in each case. In addition, the IC50 at μ opioid receptor was 1 to 10 µM; at δ opioid receptor, > 100 µM; on κ opioid receptor, 1 to 10 µM.
As to `CC(C)c1cc(O)cc2c1CC1CCCCCC2(C)C1N` (stereo not shown) [Compound 10], the EC50 on μ opioid receptor, at δ opioid receptor and at κ opioid receptor was > 100 µM throughout. In addition, the IC50 is 10 to 100 µM on μ opioid receptor, > 100 µM on δ opioid receptor and 10 to 100 µM at κ opioid receptor.
Take `CC12CCCCCC(Cc3c(-c4ccccc4)cc(O)cc31)C2N` (stereo not shown) [Compound 11]: the EC50 at μ opioid receptor was > 100 µM; at δ opioid receptor it was > 100 µM; on κ opioid receptor, 10 to 100 µM. Moreover, the IC50 on μ opioid receptor, on δ opioid receptor and at κ opioid receptor was > 100 µM each time.
Take `CC12CCCCCC(Cc3cc(Br)c(O)cc31)C2N` (stereo not shown) [Compound 12]: the EC50 is 10 to 100 µM on μ opioid receptor, > 100 µM at δ opioid receptor and > 100 µM on κ opioid receptor. The IC50 was 10 to 100 µM at μ opioid receptor, > 100 µM at δ opioid receptor and > 100 µM at κ opioid receptor.
For the compound `CC(C)c1cc2c(cc1O)C1(C)CCCCCC(C2)C1N` (stereo not shown) [Compound 13], the figures for the EC50 at μ opioid receptor, on δ opioid receptor and on κ opioid receptor were 10 to 100 µM, > 100 µM and 10 to 100 µM, respectively. Also, the IC50 was 10 to 100 µM on μ opioid receptor, > 100 µM on δ opioid receptor and 10 to 100 µM on κ opioid receptor.
On to `Cc1cc2c(cc1O)C1(C)CCCCCC(C2)C1N` (stereo not shown) [Compound 14], for which the EC50 was 10 to 100 µM at μ opioid receptor, > 100 µM on δ opioid receptor and > 100 µM on κ opioid receptor. The 50% inhibitory concentration (IC50) at μ opioid receptor was 10 to 100 µM; on δ opioid receptor, > 100 µM; on κ opioid receptor, 10 to 100 µM.
`CC12CCCCCC(Cc3cc(C4CC4)c(O)cc31)C2N` (stereo not shown) [Compound 15]: the results for the EC50 on μ opioid receptor, at δ opioid receptor and on κ opioid receptor were > 100 µM, > 100 µM and 10 to 100 µM, respectively. Besides, the IC50 at μ opioid receptor, at δ opioid receptor and on κ opioid receptor was > 100 µM each time.
On to `CC12CCCCCC(Cc3c(CO)cc(O)cc31)C2N` (stereo not shown) [Compound 18], for which the EC50 on μ opioid receptor, on δ opioid receptor and on κ opioid receptor was > 100 µM each time. For the same compound, the figures for the IC50 at μ opioid receptor, at δ opioid receptor and on κ opioid receptor were 1 to 10 µM, > 100 µM and > 100 µM, respectively.
As to `CC12CCCCCC(Cc3cc(C#N)c(O)cc31)C2N` (stereo not shown) [Compound 19], the EC50 on μ opioid receptor, on δ opioid receptor and at κ opioid receptor was > 100 µM each time. Besides, the IC50 on μ opioid receptor, on δ opioid receptor and at κ opioid receptor was > 100 µM in each case.
As for `CC12CCCCCC(Cc3cc(Cl)c(O)c(Cl)c31)C2N` (stereo not shown) [Compound 20], the EC50 on μ opioid receptor, on δ opioid receptor and at κ opioid receptor was > 100 µM in each case. For the same compound, the IC50 on μ opioid receptor is 10 to 100 µM; at δ opioid receptor it was > 100 µM; at κ opioid receptor, 10 to 100 µM.
Turning to `C[C@]12CCCCC[C@H](Cc3c(F)cc(O)cc31)[C@@H]2N` [Compound 22], the results for the EC50 at μ opioid receptor, on δ opioid receptor and at κ opioid receptor were 1 to 10 µM, > 100 µM and > 100 µM, respectively. Also, the IC50 lay in the range of 0.1 to 1 µM at μ opioid receptor, 10 to 100 µM on δ opioid receptor and 1 to 10 µM at κ opioid receptor.
`C[C@]12CCCCC[C@H](Cc3c(Cl)cc(O)cc31)[C@H]2N` [Compound 24]: the EC50 at μ opioid receptor is 10 to 100 µM; at δ opioid receptor, > 100 µM; on κ opioid receptor it was > 100 µM. The IC50 on μ opioid receptor is 0.1 to 1 µM; on δ opioid receptor, 1 to 10 µM; on κ opioid receptor, 1 to 10 µM.
As to `C[C@@]12CCOCC[C@@H](Cc3ccc(O)cc31)[C@@H]2N` [Compound 25], the EC50 was 0.1 to 1 µM on μ opioid receptor, > 100 µM at δ opioid receptor and > 100 µM at κ opioid receptor. The IC50 on μ opioid receptor, at δ opioid receptor and at κ opioid receptor was 1 to 10 µM each time.
Take `C[C@]12CCOCC[C@H](Cc3ccc(O)cc31)[C@H]2N` [Compound 26]: the EC50 on μ opioid receptor, on δ opioid receptor and at κ opioid receptor was > 100 µM in each case. The IC50 at μ opioid receptor was 10 to 100 µM; on δ opioid receptor, > 100 µM; at κ opioid receptor, > 100 µM.
